One may read the IC50 as the point on the concentration scale where inhibition reaches its midpoint. As a reminder, the melting point is the temperature, or range, at which the solid turns liquid.

Like-named read-outs stand apart in the source and are kept apart here. Where only a bound is given, the exact number is not on record here.

Consider 16 molecules from PMC10537280, “Chemo-/Regio-Selective Synthesis of Novel Functionalized Spiro[pyrrolidine-2,3′-oxindoles] under Microwave Irradiation and Their Anticancer Activity” (Molecules, 2023).

The test system of data set [1] is immortalized liver LO2 normal cell lines. Description: MTT cytotoxicity assay, normal liver LO2 cells. It is filed as cell-based. To be noted: Homo sapiens, read-out: LO2 Cells IC50. Here is the method:
(§1) Adenocarcinomic human alveolar basal epithelial (A549) and human hepatoma (HepG2) cancer cell lines, immortalized normal human liver (LO2), human bronchial epithelial (BEAS-2B cells were purchased from [NT], Manassas, VA, USA). […] Invitrogen, Waltham, MA, USA). All cells were incubated at 37 °C in a 5% humidified CO2 incubator). All test compounds were dissolved in DMSO at a final concentration of 50 mM and stored at -20 °C before use. Cytotoxicity was assessed by the MTT (5 mg/mL) assay, as described previously. Briefly, 5 × 10^3 cells per well were seeded in 96-well plates before drug treatments. […] Cells without drug treatment were used as controls. Subsequently, 10 μL of 5 mg/mL MTT solution was added to each well and incubated at 37 °C for 4 h, followed by the addition of 100 μL solubilization buffer (12 mM HCl in a solution of 10% SDS) and overnight incubation. The absorbance, A570 nm, was then determined in each well on the next day. The percentage of cell viability was calculated using the expression: % viability = Atreated/Acontrol × 100, and was given as cytotoxicity (Table 2 and Table 3; […]

Data set [2] has as its system immortalized lung BEAS-2B normal cell lines. As to the kind of experiment: MTT cytotoxicity assay, normal lung BEAS-2B cells. It is filed as cell-based. To be noted: Homo sapiens, 72 h, read-out: BEAS-2B Cells IC50. The procedure:
as §1
A general note: Formazan colour is commonly taken as a measure of viable cells.

Data set [3] concerns human HepG2 cancer cell lines. As to the kind of experiment: MTT cytotoxicity assay, liver cancer HepG2 cells. It is filed as cell-based. To be noted: for IC50: Homo sapiens, HepG2, 72 h, read-out: HepG2 Cells IC50; for S.I. Selectivity index liver (IC50 normal cells/IC50 cancer cells): LO2 IC50 / HepG2 IC50. The procedure:
as §1

Data set [4] deals with human lung A549 cancer cell lines. Description: MTT cytotoxicity assay, lung cancer A549 cells. It is filed as cell-based. To be noted: for IC50: Homo sapiens, read-out: A549 Cells IC50; for S.I. Selectivity index lung (IC50 normal cells/IC50 cancer cells): BEAS-2B IC50 / A549 IC50. The procedure: as §1
Setting [5] is: L02, MTT, 72 h, 0.19–100 μM, normal liver cells.
The mark [6] stands for this setting: MTT, 0.19–100 μM, normal lung cells.
Where [7] appears, read: MTT, 72 h, 0.19–100 μM, means of at least three independent experiments in duplicates.
[8] abbreviates: A549, MTT, 72 h, 0.19–100 μM, means of at least three independent experiments in duplicates.

In the case of `C[C@@H]1CC[C@H]2[C@@H](C)C(=O)O[C@@H]3O[C@@]4(C)CC[C@@H]1[C@]32OO4` [ART, artemisinin, reference compound], the IC50 in data set [1] (setting [5]) was above 100 µM; in data set [2] (setting [6]) it was 100 µM; in data set [3] (setting [7]), above 100 µM; in data set [4] (setting [8]), 100 µM.

Regarding `C[C@H]1[C@H](OC(=O)CCC(=O)O)O[C@@H]2O[C@@]3(C)CC[C@H]4[C@H](C)CC[C@@H]1[C@@]24OO3` [AS, artesunic acid, reference compound], the IC50 stood at 8.25 µM in data set [1] (setting [5]), 7.53 µM in data set [2] (setting [6]), 4.09 ± 0.4 µM in data set [3] (setting [7]) and 9.85 µM in data set [4] (setting [8]). In addition, the “S.I. Selectivity index liver (IC50 normal cells/IC50 cancer cells)” value (from here on “S.I. Selectivity index liver”) in data set [3] was determined as 2.01. Also, the “S.I. Selectivity index lung (IC50 normal cells/IC50 cancer cells)” value (“S.I. Selectivity index lung” below) in data set [4] stood at 0.76.

`CCN(CC)CCCC(C)Nc1ccnc2cc(Cl)ccc12` (centres unmarked) [CQ, chloroquine, reference compound]: the IC50 in data set [1] (L02, 72 h) came to 15 µM; in data set [2], 3.07 µM; in data set [3], 49.02 ± 0.4 µM; in data set [4] (A549, 72 h) it was 100 µM. In addition, in data set [3], the “S.I. Selectivity index liver” value is listed as 0.30.

As for `COc1ccc(OC)c(C2C([N+](=O)[O-])C(CC(C)C)NC23C(=O)Nc2ccccc23)c1` (centres unmarked) [Compound 4a, 3′-(2,5-dimethoxyphenyl)-5′-isobutyl-4′-nitrospiro[indoline-3,2′-pyrrolidin]-2-one], the melting point lay in the range of 182 to 184 °C. For the same molecule, the IC50 in data set [1] (setting [5]) was above 100 µM. In addition, the IC50 in data set [2] (setting [6]) is above 100 µM. Further, the IC50 in data set [3] (setting [7]) is above 100 µM. Further, the IC50 in data set [4] (setting [8]) is above 100 µM.

On to `COc1ccc(OC)c(C2C([N+](=O)[O-])C(C)NC23C(=O)Nc2ccccc23)c1` (centres unmarked) [Compound 4b, 3′-(2,5-dimethoxyphenyl)-5′-methyl-4′-nitrospiro[indoline-3,2′-pyrrolidin]-2-one], for which the melting point fell in the range of 150 to 152 °C. For the same molecule, the IC50 in data set [1] (setting [5]) was above 100 µM. Further, in data set [2] (setting [6]), the IC50 is above 100 µM. For the same molecule, the IC50 in data set [3] (setting [7]) is above 100 µM. In addition, the IC50 in data set [4] (setting [8]) is above 100 µM.

For the molecule `COc1ccc(OC)c(C2C([N+](=O)[O-])C(CC(C)C)NC23C(=O)Nc2ccc(Br)cc23)c1` (centres unmarked) [Compound 4c, 5-bromo-3′-(2,5-dimethoxyphenyl)-5′-isobutyl-4′-nitrospiro[indoline-3,2′-pyrrolidin]-2-one], the melting point lay within 142 to 144 °C. Also, in data set [1] (setting [5]), the IC50 was 37.6 µM. For the same molecule, the IC50 in data set [2] (setting [6]) was found to be 33.5 µM. Further, the IC50 in data set [3] (setting [7]) is 60.3 µM. Also, in data set [3], the “S.I. Selectivity index liver” value stood at 0.62. For the same molecule, the “S.I. Selectivity index lung” value in data set [4] is listed as 0.96. For the same molecule, in data set [4] (setting [8]), the IC50 is 35 µM.

In turn, `COc1ccc(OC)c(C2C([N+](=O)[O-])C(C(C)C)NC23C(=O)Nc2ccccc23)c1` (centres unmarked) [Compound 4d, 3′-(2,5-dimethoxyphenyl)-5′-isopropyl-4′-nitrospiro[indoline-3,2′-pyrrolidin]-2-one] displayed a melting point of 210 to 212 °C. The IC50 in data set [1] (setting [5]) is above 100 µM. Moreover, the IC50 in data set [2] (setting [6]) was above 100 µM. Moreover, in data set [3] (setting [7]), the IC50 is above 100 µM. Besides, in data set [4] (setting [8]), the IC50 was above 100 µM.

For `COc1ccc(OC)c(C2C([N+](=O)[O-])C(C)NC23C(=O)Nc2ccc(Br)cc23)c1` (centres unmarked) [Compound 4e, 5-bromo-3′-(2,5-dimethoxyphenyl)-5′-methyl-4′-nitrospiro[indoline-3,2′-pyrrolidin]-2-one], the melting point fell in the range of 108 to 110 °C. Besides, in data set [1] (setting [5]), the IC50 is 81.3 µM. The IC50 in data set [2] (setting [6]) was above 100 µM. Besides, the IC50 in data set [3] (setting [7]) was above 100 µM. Besides, in data set [3], the “S.I. Selectivity index liver” value is below 0.81. The IC50 in data set [4] (setting [8]) worked out at 85.6 µM.

As to `COc1ccc(C2C([N+](=O)[O-])C(CC(C)C)NC23C(=O)Nc2ccc(Br)cc23)cc1OCc1ccccc1` (centres unmarked) [Compound 4f, 3′-(3-(benzyloxy)-4-methoxyphenyl)-5-bromo-5′-isobutyl-4′-nitrospiro[indoline-3,2′-pyrrolidin]-2-one], the melting point lay within 95 to 97 °C. The IC50 in data set [1] (setting [5]) is above 100 µM. Further, in data set [2] (setting [6]), the IC50 was above 100 µM. Besides, the IC50 in data set [3] (setting [7]) amounted to 82 µM. For the same molecule, the IC50 in data set [4] (setting [8]) came out at 41.1 µM.

With `COc1ccc(C2C([N+](=O)[O-])C(Cc3ccccc3)NC23C(=O)Nc2ccc(Br)cc23)cc1OCc1ccccc1` (centres unmarked) [Compound 4g, 5′-benzyl-3′-(3-(benzyloxy)-4-methoxyphenyl)-5-bromo-4′-nitrospiro[indoline-3,2′-pyrrolidin]-2-one], the melting point lay in the range of 155 to 157 °C. In addition, the IC50 in data set [1] (setting [5]) was above 100 µM. For the same molecule, the 50% inhibitory concentration (IC50) in data set [2] (setting [6]) was above 100 µM. For the same molecule, the IC50 in data set [3] (setting [7]) was above 100 µM. In addition, in data set [4] (setting [8]), the IC50 was above 100 µM.

The molecule `COc1ccc(C2C([N+](=O)[O-])C(CC(C)C)NC23C(=O)Nc2ccccc23)cc1OC` (centres unmarked) [Compound 4h, 3′-(3,4-dimethoxyphenyl)-5′-isobutyl-4′-nitrospiro[indoline-3,2′-pyrrolidin]-2-one] came in with a melting point of 73 to 75 °C. Moreover, the IC50 in data set [1] (setting [5]) was above 100 µM. In addition, the IC50 in data set [2] (setting [6]) is above 100 µM. In addition, the IC50 in data set [3] (setting [7]) was above 100 µM. Also, the IC50 in data set [4] (setting [8]) was above 100 µM.

With `COc1ccc(C2C([N+](=O)[O-])C(C)NC23C(=O)Nc2ccccc23)cc1OC` (centres unmarked) [Compound 4i, 3′-(3,4-dimethoxyphenyl)-5′-methyl-4′-nitrospiro[indoline-3,2′-pyrrolidin]-2-one], the melting point is 165 to 167 °C. Besides, the IC50 in data set [1] (setting [5]) was above 100 µM. Further, the half-inhibitory concentration (IC50) in data set [2] (setting [6]) was above 100 µM. Further, the IC50 in data set [3] (setting [7]) is above 100 µM. The IC50 in data set [4] (setting [8]) is above 100 µM.

Consider `COc1ccc(C2C([N+](=O)[O-])C(C)NC23C(=O)Nc2ccc(Br)cc23)cc1OC` (centres unmarked) [Compound 4j, 5-bromo-3′-(3,4-dimethoxyphenyl)-5′-methyl-4′-nitrospiro[indoline-3,2′-pyrrolidin]-2-one], for which the melting point fell in the range of 155 to 157 °C. The IC50 in data set [1] (setting [5]) is above 100 µM. For the same molecule, the IC50 in data set [2] (setting [6]) is above 100 µM. In data set [3] (setting [7]), the half-maximal inhibitory concentration (IC50) is above 100 µM. In addition, the IC50 in data set [4] (setting [8]) was above 100 µM.

For the molecule `COc1cc(C2C([N+](=O)[O-])C(CC(C)C)NC23C(=O)Nc2ccccc23)ccc1OCc1ccccc1` (centres unmarked) [Compound 4k, 3′-(4-(benzyloxy)-3-methoxyphenyl)-5′-isobutyl-4′-nitrospiro[indoline-3,2′-pyrrolidin]-2-one], the melting point was in the range of 68 to 70 °C. For the same molecule, the IC50 in data set [1] (setting [5]) amounted to 33.3 µM. Further, the IC50 in data set [2] (setting [6]) is above 100 µM. Moreover, the IC50 in data set [3] (setting [7]) stood at 67.8 µM. Moreover, the “S.I. Selectivity index liver” value in data set [3] turned out to be 0.49. For the same molecule, the IC50 in data set [4] (setting [8]) is above 100 µM.

For `COc1cc(C2C([N+](=O)[O-])C(C)NC23C(=O)Nc2ccccc23)ccc1OCc1ccccc1` (centres unmarked) [Compound 4l, 3′-(4-(benzyloxy)-3-methoxyphenyl)-5′-methyl-4′-nitrospiro[indoline-3,2′-pyrrolidin]-2-one], the melting point fell in the range of 168 to 170 °C. Besides, the IC50 in data set [1] (setting [5]) was above 100 µM. Further, the IC50 in data set [2] (setting [6]) was above 100 µM. For the same molecule, the IC50 in data set [3] (setting [7]) is above 100 µM. For the same molecule, the IC50 in data set [4] (setting [8]) was above 100 µM.

Turning to `COc1cc(C2C([N+](=O)[O-])C(C)NC23C(=O)Nc2ccc(Br)cc23)ccc1OCc1ccccc1` (centres unmarked) [Compound 4m, 3′-(4-(benzyloxy)-3-methoxyphenyl)-5-bromo-5′-methyl-4′-nitrospiro[indoline-3,2′-pyrrolidin]-2-one], the melting point was 168 to 170 °C. Also, in data set [1] (setting [5]), the IC50 is 36.6 µM. The IC50 in data set [2] (setting [6]) came out at 63.5 µM. Besides, the IC50 in data set [3] (setting [7]) was found to be 41.6 µM. The “S.I. Selectivity index liver” value in data set [3] was found to be 0.88. In data set [4], the “S.I. Selectivity index lung” value came to 1.38. Also, the IC50 in data set [4] (setting [8]) turned out to be 45.9 µM.
